Patent publication US7667042B2, “Stable polymorphic forms of an anticonvulsant” (Sun Pharma Advanced Research Company Ltd., priority 2003, dated 2010)
Where “and” joins values, the source holds several entries; their conditions need not be identical. Equal entries are not always repeated. Structures can show the parent of a compound that is named as a salt.

What was measured:
[1] = Particle size analysis by HELOS (H1551) & RODOS; type: physicochemical; conditions: hydrochloride
From the text: Particle Size Analysis (Analysed by HELOS (H1551) & RODOS)

[2] = reported in prior art, cited from earlier work; for Thermal stability: elevated temperature, hydrochloride
[3] = Solubility of tiagabine hydrochloride in various solvents at room temperature; type: physicochemical; conditions: 100 mg sample
[4] = XRD analysis after 6 months storage at ambient conditions (polymorph stability); type: physicochemical; conditions: hydrochloride
From the text: In embodiment of the present invention the stable polymorph IV of tiagabine hydrochloride may be obtained in particle size with volume mean diameter (VMD) less than 20 microns.

## Cc1ccsc1C(=CCCN1CCC[C@@H](C(=O)O)C1)c1sccc1C [Form I, tiagabine hydrochloride]
[1]
  Volume mean diameter (VMD): 60.2 microns
[2]
  Thermal stability: less stable at elevated temperature
  Hygroscopicity: non-hygroscopic
  Stability: stable

## Cc1ccsc1C(=CCCN1CCC[C@@H](C(=O)O)C1)c1sccc1C [Form II, tiagabine hydrochloride]
[2]
  Thermal stability: thermally stable
  Hygroscopicity: non-hygroscopic

## Cc1ccsc1C(=CCCN1CCC[C@@H](C(=O)O)C1)c1sccc1C [tiagabine hydrochloride]
[3]; Acetone
  Solubility: volume of solvent: 24 mL
[3]; Acetonitrile
  Solubility: volume of solvent: >100 mL
[3]; DMF
  Solubility: volume of solvent: 0.5 mL
[3]; Ethanol
  Solubility: volume of solvent: 0.3 mL
[3]; Ethylacetate
  Solubility: volume of solvent: >100 mL
[3]; IPA
  Solubility: volume of solvent: 1.3 mL
[3]; Methanol
  Solubility: volume of solvent: 0.2 mL
[3]; Toluene
  Solubility: volume of solvent: >100 mL
[3]; Water
  Solubility: volume of solvent: 0.7 mL

## Cc1ccsc1C(=CCCN1CCC[C@@H](C(=O)O)C1)c1sccc1C [Form IV, tiagabine hydrochloride]
[4]
  Change in x-ray diffraction pattern on storage (polymorphic stability): matches the XRD of ‘0’ day sample
[4]; listed as polymorph IV
  Change in x-ray diffraction pattern on storage (polymorphic stability): no change in the x-ray diffraction pattern
[1]
  Volume mean diameter (VMD): 16.7 microns and 19.8 microns
